Laboratory results reported in patent publication US20240217983A1, “GPR119 AGONISTS” (Kallyope, Inc., priority 2021, published 2024).

Target: T1, human GPR119 (hGPR119) (Homo sapiens, UniProt Q8TDV5)
T1 construct: expressed in transfected cells
T1 sequence (Q8TDV5 1-335): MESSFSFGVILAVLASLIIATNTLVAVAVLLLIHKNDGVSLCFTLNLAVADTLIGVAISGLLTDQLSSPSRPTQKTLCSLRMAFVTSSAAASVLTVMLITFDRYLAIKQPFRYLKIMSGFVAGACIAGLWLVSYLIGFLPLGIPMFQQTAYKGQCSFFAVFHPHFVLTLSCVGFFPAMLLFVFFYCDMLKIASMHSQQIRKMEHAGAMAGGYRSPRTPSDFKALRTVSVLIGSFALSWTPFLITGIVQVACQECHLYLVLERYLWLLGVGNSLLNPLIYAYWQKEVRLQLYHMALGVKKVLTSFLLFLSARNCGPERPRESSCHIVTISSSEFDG
Assay: cAMP accumulation assay (Cisbio cAMP Gs dynamic HTRF kit) in CHO-K1 cells stably expressing human GPR119
Format: cell-based
Conditions: 4-parameter fit; for Emax: 1 h, % activity normalized to Max and Min controls; for EC50: 60 minutes at 37° C.
Description: CHO-K1 cells stably expressing human GPR119 (hGPR119) were prepared by transfection of a GPR119-carrying plasmid using Lipofectamine 2000 (following manufacturer instructions). A stable cell line was established using the limiting dilution method with geneticine selection. Assay-ready frozen (ARF) cells were prepared and used throughout the study.
The assay was performed in a 384-well plate format using the cAMP Gs dynamic assay kit from Cisbio. ARF cells expressing hGPR119 were thawed, washed and then resuspended in cAMP stimulation buffer at a cell density of 1.1×10^6 cells/mL. Cells were plated at a density of ˜10,000 cells/well (9 μL/well). Dose response curves for the tested compounds were prepared in a cAMP stimulation buffer, containing 0.1% Tween 80 at 4 fold the final concentration. The compounds were then transferred to the cell plates using BRAVO (3 μL/well) and the plates were incubated for 60 minutes at 37° C./5% CO2. Detection buffer (10 μL, prepared as described in the cAMP Gs dynamic kit) were added to each well, and the plates were incubated at ambient temperature for 1 hr.
RT-FRET was measured using a ClarioSTAR plate reader, calculating the ratio between emissions at 665 nm and 620 nm (HTRF ratio). The HTRF ratio for positive (Max) and negative (Min) controls were used to normalize HTRF data and generate values for % activity. EC50 and Max activity values were determined using a standard 4-parameter fit.

Row | SMILES | Emax [%] | EC50 [nM]
1 | O=C(Cc1ccc(OCCCC2CCN(c3ncc(Cl)cn3)CC2)cc1F)N1C[C@@H]2CN(C[C@H](O)[C@H](O)[C@H](O)CO)C[C@@H]21 [Example 38, 2-(4-(3-(1-(5-chloropyrimidin-2-yl)piperidin-4-yl)propoxy)-2-fluorophenyl)-1-((1S,5R)-3-((2S,3S,4R)-2,3,4,5-tetrahydroxypentyl)-3,6-diazabicyclo[3.2.0]heptan-6-yl)ethan-1-one] | 100 to 130 | ≤ 100
2 | COCc1cnc(N2CCC(CCOCc3ccc(CC(=O)N4CCN(C[C@H](O)[C@@H](O)[C@H](O)[C@H](O)CO)CC4)c(F)c3)CC2)nc1 [Example 103, 2-(2-fluoro-4-((2-(1-(5-(methoxymethyl)pyrimidin-2-yl)piperidin-4-yl)ethoxy)methyl)phenyl)-1-(4-((2S,3R,4R,5R)-2,3,4,5,6-pentahydroxyhexyl)piperazin-1-yl)ethan-1-one] | 50 to 100 | > 10000
3 | O=C(Cc1ccc(OCCCC2CCN(c3ncc(Cl)cn3)CC2)cc1F)N1CC2(CCN(C[C@H](O)[C@H](O)[C@H](O)CO)C2)C1 [Example 66, 2-(4-(3-(1-(5-chloropyrimidin-2-yl)piperidin-4-yl)propoxy)-2-fluorophenyl)-1-(6-((2S,3S,4R)-2,3,4,5-tetrahydroxypentyl)-2,6-diazaspiro[3.4]octan-2-yl)ethan-1-one] | 100 to 130 | ≤ 100
4 | COCc1cnc(N2CCC(CCCOc3ccc(CC(=O)N4CCN(C[C@H](O)[C@@H](O)[C@H](O)[C@H](O)CO)CC4)c(F)c3)CC2)nc1 [Example 98, 2-(2-fluoro-4-(3-(1-(5-(methoxymethyl)pyrimidin-2-yl)piperidin-4-yl)propoxy)phenyl)-1-(4-((2S,3R,4R,5R)-2,3,4,5,6-pentahydroxyhexyl)piperazin-1-yl)ethan-1-one] | 100 to 130 | 100 to 1000
5 | O=C(Cc1ccc(OCCCC2CCN(c3ncc(Cl)cn3)CC2)cc1F)N1CCN(C[C@H](O)[C@H](O)[C@H](O)CO)C2CC21 (stereo partly drawn) [Example 58, 2-(4-(3-(1-(5-chloropyrimidin-2-yl)piperidin-4-yl)propoxy)-2-fluorophenyl)-1-(5-((2S,3S,4R)-2,3,4,5-tetrahydroxypentyl)-2,5-diazabicyclo[4.1.0]heptan-2-yl)ethan-1-one] | 100 to 130 | ≤ 100
6 | O=C(Cc1c(F)cc(OCCCCC2CCN(c3ncc(Cl)cn3)CC2)cc1F)N1CCN(C[C@H](O)[C@@H](O)[C@H](O)[C@H](O)CO)CC1 [Example 87, 2-(4-(4-(1-(5-chloropyrimidin-2-yl)piperidin-4-yl)butoxy)-2,6-difluorophenyl)-1-(4-((2S,3R,4R,5R)-2,3,4,5,6-pentahydroxyhexyl)piperazin-1-yl)ethan-1-one] | ≥ 130 | ≤ 100
7 | O=C(Cc1ccc(OCCC2CC(C3CCN(c4ncc(Cl)cn4)CC3)C2)cc1F)N1CCN(C[C@H](O)[C@@H](O)[C@H](O)[C@H](O)CO)CC1 (stereo partly drawn) [Example 115, 2-(4-(2-(3-(1-(5-chloropyrimidin-2-yl)piperidin-4-yl)cyclobutyl)ethoxy)-2-fluorophenyl)-1-(4-((2S,3R,4R,5R)-2,3,4,5,6-pentahydroxyhexyl)piperazin-1-yl)ethan-1-one] | 100 to 130 | 100 to 1000
8 | O=C(Cc1ccc(OCCCC2CCN(c3ncc(Cl)cn3)CC2)cc1F)N1CC2(CCC2NC[C@H](O)[C@@H](O)[C@H](O)[C@H](O)CO)C1 (stereo in doubt) [Example 79, 2-(4-(3-(1-(5-chloropyrimidin-2-yl)piperidin-4-yl)propoxy)-2-fluorophenyl)-1-(5-(((2S,3R,4R,5R)-2,3,4,5,6-pentahydroxyhexyl)amino)-2-azaspiro[3.3]heptan-2-yl)ethan-1-one] | ≥ 130 | ≤ 100

Second part, the molecule after the results:

Row | Emax [%] | EC50 [nM] | SMILES
9 | 100 to 130 | ≤ 100 | O=C(Cc1ccc(OCCCC2CCN(c3ncc(Cl)cn3)CC2)cc1F)N1C[C@H]2CN(C[C@H](O)[C@@H](O)[C@H](O)[C@H](O)CO)C[C@H]2C1 [Example 45, 2-(4-(3-(1-(5-chloropyrimidin-2-yl)piperidin-4-yl)propoxy)-2-fluorophenyl)-1-((3aR,6aS)-5-((2S,3R,4R,5R)-2,3,4,5,6-pentahydroxyhexyl)hexahydropyrrolo[3,4-c]pyrrol-2(1H)-yl)ethan-1-one]
10 | 100 to 130 | ≤ 100 | CCc1cnc(N2CCC(CCCOc3ccc(CC(=O)N4CCN(C[C@H](O)[C@@H](O)[C@H](O)[C@H](O)CO)CC4)c(F)c3)CC2)nc1 [Example 92, 2-(4-(3-(1-(5-ethylpyrimidin-2-yl)piperidin-4-yl)propoxy)-2-fluorophenyl)-1-(4-((2S,3R,4R,5R)-2,3,4,5,6-pentahydroxyhexyl)piperazin-1-yl)ethan-1-one]
11 | 100 to 130 | ≤ 100 | O=C(Cc1ccc(OCCCC2CCN(c3ncc(Cl)cn3)CC2)cc1F)N1C2CC1CN(C[C@H](O)[C@@H](O)[C@H](O)[C@H](O)CO)C2 [Example 57, 2-(4-(3-(1-(5-chloropyrimidin-2-yl)piperidin-4-yl)propoxy)-2-fluorophenyl)-1-(3-((2S,3R,4R,5R)-2,3,4,5,6-pentahydroxyhexyl)-3,6-diazabicyclo[3.1.1]heptan-6-yl)ethan-1-one]
12 | 100 to 130 | 100 to 1000 | O=C(Cc1ccc(OCCCC2CCN(c3ncc(Cl)cn3)CC2)cc1F)N1CCC12CN(C[C@H](O)[C@H](O)[C@H](O)CO)C2 [Example 40, 2-(4-(3-(1-(5-chloropyrimidin-2-yl)piperidin-4-yl)propoxy)-2-fluorophenyl)-1-(6-((2S,3S,4R)-2,3,4,5-tetrahydroxypentyl)-1,6-diazaspiro[3.3]heptan-1-yl)ethan-1-one]
13 | 100 to 130 | ≤ 100 | O=C(Cc1ccc(OCCCC2CCN(c3ncc(Cl)cn3)CC2)cc1F)N1CCC2(CCN(C[C@H](O)[C@@H](O)[C@H](O)[C@H](O)CO)C2)C1 (stereo partly drawn) [Example 43, 2-(4-(3-(1-(5-chloropyrimidin-2-yl)piperidin-4-yl)propoxy)-2-fluorophenyl)-1-(7-((2S,3R,4R,5R)-2,3,4,5,6-pentahydroxyhexyl)-2,7-diazaspiro[4.4]nonan-2-yl)ethan-1-one]
14 | 100 to 130 | 100 to 1000 | O=C(Cc1ccc(OCCCC2CCN(c3ncc(Cl)cn3)CC2)c(F)c1)N1CCN(C[C@H](O)[C@@H](O)[C@H](O)[C@H](O)CO)CC1 [Example 91, 2-(4-(3-(1-(5-chloropyrimidin-2-yl)piperidin-4-yl)propoxy)-3-fluorophenyl)-1-(4-((2S,3R,4R,5R)-2,3,4,5,6-pentahydroxyhexyl)piperazin-1-yl)ethan-1-one]
15 | 100 to 130 | ≤ 100 | O=C(Cc1ccc(OCCCC2CCN(c3ncc(Cl)cn3)CC2)cc1F)N1C[C@H]2CCN(C(=O)CCCCS(=O)(=O)O)[C@H]2C1 [Example 20, 5-((3aR,6aR)-5-(2-(4-(3-(1-(5-chloropyrimidin-2-yl)piperidin-4-yl)propoxy)-2-fluorophenyl)acetyl)hexahydropyrrolo[3,4-b]pyrrol-1(2H)-yl)-5-oxopentane-1-sulfonic acid]
16 | ≥ 130 | ≤ 100 | O=C(Cc1ccc(OCCCC2CCN(c3ncc(Cl)cn3)CC2)cc1F)N1C[C@@H]2CCN(C(=O)CCCCS(=O)(=O)O)[C@@H]2C1 [Example 6, 5-((3aS,6aS)-5-(2-(4-(3-(1-(5-chloropyrimidin-2-yl)piperidin-4-yl)propoxy)-2-fluorophenyl)acetyl)hexahydropyrrolo[3,4-b]pyrrol-1(2H)-yl)-5-oxopentane-1-sulfonic acid]
17 | 100 to 130 | ≤ 100 | O=C(Cc1ccc(OCCCC2CCN(c3ncc(Cl)cn3)CC2)cc1F)N1C[C@H]2CN(C[C@H](O)[C@H](O)[C@H](O)CO)C[C@H]2C1 [Example 44, 2-(4-(3-(1-(5-chloropyrimidin-2-yl)piperidin-4-yl)propoxy)-2-fluorophenyl)-1-((3aR,6aS)-5-((2S,3S,4R)-2,3,4,5-tetrahydroxypentyl)hexahydropyrrolo[3,4-c]pyrrol-2(1H)-yl)ethan-1-one]
18 | 100 to 130 | 100 to 1000 | O=C(Cc1c(F)cc(OCCCC2CCN(C(=O)OC3(C(F)(F)F)COC3)CC2)cc1F)N1CCN(C[C@H](O)[C@@H](O)[C@H](O)[C@H](O)CO)CC1 [Example 106, 3-(trifluoromethyl)oxetan-3-yl 4-(3-(3,5-difluoro-4-(2-oxo-2-(4-((2S,3R,4R,5R)-2,3,4,5,6-pentahydroxyhexyl)piperazin-1-yl)ethyl)phenoxy)propyl)piperidine-1-carboxylate]
19 | 100 to 130 | 100 to 1000 | O=C(Cc1ccc(OCCCC2CCN(c3ncc(Cl)cn3)CC2)cc1F)N1C[C@H]2CN(C(=O)CCCCS(=O)(=O)O)[C@H]2C1 [Example 7, 5-((1S,5R)-3-(2-(4-(3-(1-(5-chloropyrimidin-2-yl)piperidin-4-yl)propoxy)-2-fluorophenyl)acetyl)-3,6-diazabicyclo[3.2.0]heptan-6-yl)-5-oxopentane-1-sulfonic acid]
